Reference: paper PMC12595484, “Optimizing multifunctional fluorescent ligands for intracellular labeling” (Proceedings of the National Academy of Sciences of the …, 2025)

Tested on: mitochondria from HEK293T cells expressing OMP25–msGFP–HaloTag
Assay: Affinity capture of mitochondria with streptavidin beads, in-gel fluorescence
Format: cell-based
Details: for capture efficiency: 100 nM ligand, mean ± SEM; for mitochondria pulldown efficiency at 10-fold higher concentration: 1 µM ligand vs 100 nM
Description: We then used 15HTL and 16HTL to purify mitochondria from these cells by incubation followed by washing and cell lysis. The crude supernatant was incubated with streptavidin-coated magnetic microbeads and washed. The bead-bound mitochondria were lysed, and the resulting solution was analyzed by SDS–PAGE/in-gel fluorescence (Fig. 5 A and B). […] The lower in-gel fluorescence brightness for the wash and bound fractions of 15HTL or 16HTL compared to the wash and bound fractions of their parent dyes 5HTL or 6HTL (Fig. 5 B and C) stems from the variability of transient transfection and band broadening due to the larger ligand. […]
Affinity capture and in-gel fluorescence quantification. Affinity capture pulldown isolation experiments of biotin-labeled HaloTag fusion proteins were performed on ice-cold isolation buffer (IB) consisting of KCl (0.18 M), ethylene glycol-bis(β-aminoethyl ether)-N,N,N′,N′-tetraacetic acid (EGTA; 1 mM), 3-(N-morpholino)propanesulfonic acid (MOPS; 5 mM); the pH was adjusted to pH = 7.35 using KOH(aq).15 StrepTactin Microbeads (IBA Lifesciences, 6-5510-050) were used as capture reagents as these beads had lowest amount of background observed in our hands. These beads were kept at 4 °C and blocked in IB buffer with PMSF and 1% (v/v) bovine serum albumin (BSA; Jackson ImmunoResearch, 001-000-162) with rotation at 4 °C for 30 min. HEK293T cells were scraped with 200 µL IB and homogenized using 12 strokes with a 27G syringe. The resulting homogenate was spun at 4 °C at 800 g for 5 min to pellet large cellular debris. 50 µL of freshly blocked StrepTactin microbeads were added to the supernatant and incubated for 30 min at 4 °C with slow rotation. After incubation, tubes were placed in DynaMag2 (ThermoFisher, 12321D) magnetic racks and washed twice with IB+PMSF. All wash steps were kept at 4 °C (cold room).
The post-bead supernatant and wash volumes were pooled and spun at 15,000 g for 12 min. This last step pelleted the unbound mitochondria for final analysis of capture efficiency. The bead fraction and the pooled/pelleted fraction were then solubilized using the lysis buffer containing 1× PBS, 2% (v/v) SDS, 1% (v/v) Triton x-100, 10 mM EDTA, and protease inhibitors (2 mM PMSF, aprotinin, leupeptin, and pepstatin A). Samples were then incubated at 50 °C for 3–4 min after the addition of Laemmli sample buffer (SB; Bio-Rad, 1610747) with β-mercaptoethanol (Bio-Rad, 1610710). For protein detection, 10–20 µL of the sample was subjected to SDS-PAGE, using 10% Tris-Glycine gels (TGX) (Bio-Rad, 5671034) with Tris-Glycine buffer (Bio-Rad, 1610732). The affinity capture pulldown efficiency was monitored using in-gel fluorescence. The msGFP signal from HaloTag-TEV-4×GS-msGFP-mito after cell lysis and SDS-PAGE was analyzed, in-gel, using a Bio-Rad Chemidoc MP imager (Bio-Rad) through GFP fluorescence excitation and emission filters. Data were quantified by densitometry using Fiji.14 Capture efficiency was calculated comparing the total GFP signal recovered from StrepTactin beads vs the signal recovered from the high speed spin of the bead supernatant and pooled wash volumes. […]

Row | SMILES | protein capture (biotin-free ligands) | capture efficiency [%] | mitochondria pulldown efficiency at 10-fold higher concentration
1 | C[Si]1(C)c2cc(N3CC(F)C3)ccc2C2(OC(=O)c3ccc(C(=O)NCCOCCOCCCCCCCl)cc32)c2ccc(N3CC(F)C3)cc21 [6HTL, JF635–HaloTag ligand, reference compound] | no appreciable protein capture |  | 
2 | C[Si]1(C)C2=CC(=[N+]3CC(C(=O)NCCOCCOCCNC(=O)CCCC[C@@H]4SC[C@@H]5NC(=O)N[C@@H]54)C3)C=CC2=C(c2cc(C(=O)NCCOCCOCCCCCCCl)ccc2C(=O)[O-])c2ccc(N3CCC3)cc21 (some centres unmarked) [15HTL, biotin–JF646–HaloTag ligand] |  | 84.2 ± 1.8 | did not increase mitochondria pulldown efficiency
3 | C[Si]1(C)C2=CC(=[N+]3CC(F)(C(=O)NCCOCCOCCNC(=O)CCCC[C@@H]4SC[C@@H]5NC(=O)N[C@@H]54)C3)C=CC2=C(c2cc(C(=O)NCCOCCOCCCCCCCl)ccc2C(=O)[O-])c2ccc(N3CC(F)C3)cc21 (some centres unmarked) [16HTL, biotin–JF635–HaloTag ligand] |  | 88.2 ± 1.1 | did not increase mitochondria pulldown efficiency
